For orientation: IC50 means the concentration at which inhibition is half-maximal.

T1 sequence (Q00975 whole entry): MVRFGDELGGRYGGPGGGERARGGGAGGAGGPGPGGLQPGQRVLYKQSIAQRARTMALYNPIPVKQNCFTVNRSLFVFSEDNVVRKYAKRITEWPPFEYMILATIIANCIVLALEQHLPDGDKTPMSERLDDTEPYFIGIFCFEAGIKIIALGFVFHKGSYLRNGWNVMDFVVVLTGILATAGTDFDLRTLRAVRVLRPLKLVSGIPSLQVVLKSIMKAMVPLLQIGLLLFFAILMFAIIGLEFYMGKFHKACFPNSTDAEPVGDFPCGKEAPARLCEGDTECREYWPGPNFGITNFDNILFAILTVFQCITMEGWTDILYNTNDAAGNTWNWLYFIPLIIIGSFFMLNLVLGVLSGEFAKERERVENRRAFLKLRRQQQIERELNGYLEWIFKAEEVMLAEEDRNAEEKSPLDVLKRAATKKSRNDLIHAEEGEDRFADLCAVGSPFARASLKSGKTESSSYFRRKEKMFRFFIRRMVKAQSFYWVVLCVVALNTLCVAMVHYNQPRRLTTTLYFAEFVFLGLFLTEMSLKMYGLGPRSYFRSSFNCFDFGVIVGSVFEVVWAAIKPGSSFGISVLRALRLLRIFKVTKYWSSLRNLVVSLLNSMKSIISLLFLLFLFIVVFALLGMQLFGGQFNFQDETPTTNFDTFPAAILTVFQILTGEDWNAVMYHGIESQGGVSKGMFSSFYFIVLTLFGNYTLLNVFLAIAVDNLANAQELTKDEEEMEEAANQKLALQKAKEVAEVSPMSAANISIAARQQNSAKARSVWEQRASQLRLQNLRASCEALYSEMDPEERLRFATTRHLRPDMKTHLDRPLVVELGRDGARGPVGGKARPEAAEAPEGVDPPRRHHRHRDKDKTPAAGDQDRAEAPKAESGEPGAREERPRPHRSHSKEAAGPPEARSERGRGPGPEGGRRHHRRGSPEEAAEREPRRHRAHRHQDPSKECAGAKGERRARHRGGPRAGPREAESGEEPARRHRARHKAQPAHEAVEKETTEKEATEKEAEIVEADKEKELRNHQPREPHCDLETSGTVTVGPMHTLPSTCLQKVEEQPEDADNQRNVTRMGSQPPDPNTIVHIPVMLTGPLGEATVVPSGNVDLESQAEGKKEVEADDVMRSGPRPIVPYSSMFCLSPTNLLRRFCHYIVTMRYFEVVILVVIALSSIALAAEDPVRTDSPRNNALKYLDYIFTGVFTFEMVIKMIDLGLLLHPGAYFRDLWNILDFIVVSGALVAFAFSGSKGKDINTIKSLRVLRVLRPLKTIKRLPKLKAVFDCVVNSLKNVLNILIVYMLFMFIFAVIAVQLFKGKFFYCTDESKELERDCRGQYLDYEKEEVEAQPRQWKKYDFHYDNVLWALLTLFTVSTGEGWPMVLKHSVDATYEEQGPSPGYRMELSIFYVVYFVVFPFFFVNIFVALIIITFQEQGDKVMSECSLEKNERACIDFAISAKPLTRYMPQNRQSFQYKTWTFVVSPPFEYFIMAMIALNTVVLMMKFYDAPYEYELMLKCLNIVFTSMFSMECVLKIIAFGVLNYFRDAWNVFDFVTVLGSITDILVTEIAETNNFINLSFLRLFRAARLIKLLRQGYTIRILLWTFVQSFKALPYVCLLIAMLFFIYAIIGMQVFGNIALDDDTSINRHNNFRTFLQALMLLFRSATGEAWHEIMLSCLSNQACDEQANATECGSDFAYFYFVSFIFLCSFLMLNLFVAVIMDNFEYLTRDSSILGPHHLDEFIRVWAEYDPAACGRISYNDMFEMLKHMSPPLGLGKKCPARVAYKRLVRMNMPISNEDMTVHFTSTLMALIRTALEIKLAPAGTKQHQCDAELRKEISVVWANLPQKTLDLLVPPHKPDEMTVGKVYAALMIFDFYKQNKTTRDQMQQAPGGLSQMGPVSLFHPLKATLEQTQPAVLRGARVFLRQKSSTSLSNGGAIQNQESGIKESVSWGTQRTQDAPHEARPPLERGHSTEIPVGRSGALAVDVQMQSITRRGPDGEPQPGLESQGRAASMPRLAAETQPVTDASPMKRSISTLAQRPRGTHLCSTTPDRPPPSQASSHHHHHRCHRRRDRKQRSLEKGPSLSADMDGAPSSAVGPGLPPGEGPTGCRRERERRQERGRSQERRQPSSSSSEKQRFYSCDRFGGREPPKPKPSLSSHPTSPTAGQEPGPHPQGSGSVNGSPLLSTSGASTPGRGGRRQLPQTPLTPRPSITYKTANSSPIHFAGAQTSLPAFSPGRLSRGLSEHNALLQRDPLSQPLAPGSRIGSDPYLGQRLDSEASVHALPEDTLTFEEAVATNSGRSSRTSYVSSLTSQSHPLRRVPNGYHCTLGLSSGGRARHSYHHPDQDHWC
T1 sequence (P54284 whole entry partner): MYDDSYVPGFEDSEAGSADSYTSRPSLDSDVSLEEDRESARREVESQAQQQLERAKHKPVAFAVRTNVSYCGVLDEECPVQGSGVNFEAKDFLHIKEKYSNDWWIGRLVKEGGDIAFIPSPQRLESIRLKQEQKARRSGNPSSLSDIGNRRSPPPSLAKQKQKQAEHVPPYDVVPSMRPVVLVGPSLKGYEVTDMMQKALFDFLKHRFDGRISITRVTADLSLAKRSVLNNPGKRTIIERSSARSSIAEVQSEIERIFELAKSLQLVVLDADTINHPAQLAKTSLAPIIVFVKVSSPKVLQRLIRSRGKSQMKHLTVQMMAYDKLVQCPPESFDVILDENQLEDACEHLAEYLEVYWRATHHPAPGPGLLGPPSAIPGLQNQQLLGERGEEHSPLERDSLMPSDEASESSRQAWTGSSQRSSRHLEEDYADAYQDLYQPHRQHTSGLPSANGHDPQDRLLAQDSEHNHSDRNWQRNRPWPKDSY
T1 sequence (P54289 25-946 partner limits assumed): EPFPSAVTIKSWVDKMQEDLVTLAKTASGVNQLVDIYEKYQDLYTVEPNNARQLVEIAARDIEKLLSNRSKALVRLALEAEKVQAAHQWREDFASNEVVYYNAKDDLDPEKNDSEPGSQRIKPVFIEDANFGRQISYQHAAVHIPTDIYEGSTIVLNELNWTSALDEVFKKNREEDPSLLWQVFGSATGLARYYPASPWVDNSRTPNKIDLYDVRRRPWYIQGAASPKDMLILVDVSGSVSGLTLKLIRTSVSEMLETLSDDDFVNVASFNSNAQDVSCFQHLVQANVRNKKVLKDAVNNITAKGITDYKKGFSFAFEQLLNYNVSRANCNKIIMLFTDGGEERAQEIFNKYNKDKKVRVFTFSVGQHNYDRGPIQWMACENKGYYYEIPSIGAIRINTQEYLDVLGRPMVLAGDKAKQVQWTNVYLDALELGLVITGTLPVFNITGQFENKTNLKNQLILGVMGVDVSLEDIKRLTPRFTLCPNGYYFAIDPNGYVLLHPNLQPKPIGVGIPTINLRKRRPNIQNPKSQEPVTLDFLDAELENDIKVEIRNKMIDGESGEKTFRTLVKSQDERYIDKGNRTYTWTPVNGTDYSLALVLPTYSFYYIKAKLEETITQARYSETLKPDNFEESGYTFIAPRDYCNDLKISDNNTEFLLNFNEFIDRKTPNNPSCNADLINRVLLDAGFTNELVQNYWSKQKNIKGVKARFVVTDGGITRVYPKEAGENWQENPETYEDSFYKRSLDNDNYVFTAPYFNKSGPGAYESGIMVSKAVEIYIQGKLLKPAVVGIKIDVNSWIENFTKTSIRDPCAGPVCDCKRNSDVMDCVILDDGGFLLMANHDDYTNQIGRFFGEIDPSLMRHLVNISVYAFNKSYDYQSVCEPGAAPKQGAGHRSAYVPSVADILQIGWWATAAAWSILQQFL
T1 sequence (P54289 947-1103 partner limits assumed): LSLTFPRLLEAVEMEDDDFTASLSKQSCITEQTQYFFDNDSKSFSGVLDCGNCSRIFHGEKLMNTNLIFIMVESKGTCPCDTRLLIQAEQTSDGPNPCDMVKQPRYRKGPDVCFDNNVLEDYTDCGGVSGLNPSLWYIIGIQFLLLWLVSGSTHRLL

This test addresses T1, human Cav2.2 (composed of the subunits α1, β3 and α2δ) (Homo sapiens, UniProt Q00975).
T1 construct: expressed in transfected cells
In words: FLIPR assay (TSA201 cells stably transfected with human Cav2.2 and human Kir2.3, FLUO-4 Ca2+ signal, KCl depolarization). Format: cell-based. The note with it: 70 mM KCl depolarization, average value. The essentials: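 TSA201 cells co-expressing Cav2.2 (α1, β3, α2δ) and Kir2.3 were loaded with FLUO-4 for 1 h at room temperature. Compound in HBSS with 1% DMSO was preincubated 15 min, then cells were depolarized with 70 mM final KCl (with CaCl2 and HEPES) and the Ca2+ fluorescence was read on FLIPR.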
For the compound `CC(=O)N(Cc1csc(N2CCCN(C)CC2)n1)c1ccc(F)cc1` [Compound 217, N-(4-fluorophenyl)-N-{[2-(4-methyl-1,4-diazepan-1-yl)-1,3-thiazol-4-yl]methyl}acetamide], the IC50 is 29.5 µM. Next, `CCN(c1nc(CN(C(=O)C2CCCCC2)c2ccc(F)cc2)cs1)C1CC1` [Compound 211, N-({2-[cyclopropyl(ethyl)amino]-1,3-thiazol-4-yl}methyl)-N-(4-fluorophenyl)cyclohexanecarboxamide]: 2.4 µM; `CC(C)(C)C(=O)N(Cc1csc(-c2cccc(C(F)(F)F)c2)n1)c1ccc(F)cc1` [Compound 242, N-(4-fluorophenyl)-2,2-dimethyl-N-({2-[3-(trifluoromethyl)phenyl]-1,3-thiazol-4-yl]methyl)propanamide]: 5.5 µM; `CCN(c1nc(CN(C(=O)C(C)(C)C)C2CCCCC2)cs1)C1CC1` [Compound 205, N-cyclohexyl-N-({2-[cyclopropyl(ethyl)amino]-1,3-thiazol-4-yl}methyl)-2,2-dimethylpropanamide]: 2.1 µM.

In the case of `CC(C)(C)C(=O)N(Cc1csc(C2CCCCC2)n1)c1ccc(F)cc1` [Compound 206, N-[(2-cyclohexyl-1,3-thiazol-4-yl)methyl]-N-(4-fluorophenyl)-2,2-dimethylpropanamide], the half-inhibitory concentration (IC50) turned out to be 6.1 µM. Next, `CC(C)(C)OC(=O)N1CCC(c2nc(CN(C(=O)C(C)(C)C)c3ccc(F)cc3)cs2)CC1` [Compound 209, tert-butyl 4-(4-{[(2,2-dimethylpropanoyl)(4-fluorophenyl)amino]methyl}--1,3-thiazol-2-yl)piperidine-1-carboxylate]: 2.7 µM; `CCN(CC)c1cccc(CN(C(=O)[C@@H]2CCCN2)c2ccc(Cl)cc2)n1` [Compound 119, N-(4-chlorophenyl)-N-{[6-(diethylamino)pyridin-2-yl]methyl}-L-prolinamide]: 12.2 µM; `CC(=O)N(Cc1csc(N2CCC(O)CC2)n1)c1ccc(F)cc1` [Compound 222, N-(4-fluorophenyl)-N-{[2-(4-hydroxypiperidin-1-yl)-1,3-thiazol-4-yl]methyl}acetamide]: 22.4 µM. In turn, `Cc1cc(F)ccc1N(Cc1cnc(N2CCCCC2)nc1)C(=O)[C@@H]1CCCN1` [Compound 120, N-(4-fluoro-2-methylphenyl)-N-[(2-piperidin-1-ylpyrimidin-5-yl)methyl]-L-prolinamide] came in with a concentration for half-maximal inhibition (IC50) of 13.7 µM. As for `CC(C)(C)C(=O)N(Cc1csc(N2CCCC2)n1)c1ccc(F)cc1` [Compound 140, N-(4-fluorophenyl)-2,2-dimethyl-N-[(2-pyrrolidin-1-yl-1,3-thiazol-4-yl)methyl]propanamide], the 50% inhibitory concentration (IC50) was found to be 4.4 µM. The figure for `CC1CC(C)CN(c2nc(CN(C(=O)C(C)(C)C)c3ccc(F)cc3)cs2)C1` (stereo not drawn) [Compound 190, N-{[2-(3,5-dimethylpiperidin-1-yl)-1,3-thiazol-4-yl]methyl}-N-(4-fluorophenyl)-2,2-dimethylpropanamide] is 2.2 µM; for `CC(C)(C)C(=O)N(Cc1csc(N2CCC(O)CC2)n1)c1ccc(F)cc1` [Compound 182, N-(4-fluorophenyl)-N-{[2-(4-hydroxypiperidin-1-yl)-1,3-thiazol-4-yl]methyl}-2,2-dimethylpropanamide] it is 8.1 µM.

As for `CC(=O)N(Cc1ccc(N2CCC(C#N)CC2)nc1)c1ccc(F)cc1` [Compound 229, N-{[6-(4-cyanopiperidin-1-yl)pyridin-3-yl]methyl}-N-(4-fluorophenyl)acetamide], it took 19.7 µM to reach half-maximal inhibition (IC50). Next, `CN(CCO)c1ccc(CN(C(=O)C(C)(C)C)c2ccc(F)cc2)cn1` [Compound 130, N-(4-fluorophenyl)-N-({6-[(2-hydroxyethyl)(methyl)amino]pyridin-3-yl}methyl)-2,2-dimethylpropanamide]: 14.8 µM. `CC(C)(C)C(=O)N(Cc1csc(N2CCC(c3ccccc3)CC2)n1)c1ccc(F)cc1` [Compound 193, N-(4-fluorophenyl)-2,2-dimethyl-N-{[2-(4-phenylpiperidin-1-yl)-1,3-thiazol-4-yl]methyl}propanamide] displayed an IC50 of 3.1 µM.

The record behind these values is patent US20100267697A1, “ION CHANNEL MODULATORS” (Wyeth, priority 2006, published 2010).
